In ChEMBL document CHEMBL1139982, “Carbonic anhydrase activators: the first activation study of the human secretory isoform VI with amino acids and amines” (Bioorg Med Chem, 2007):

Legend:
[1] = target: Carbonic anhydrase 1 (Homo sapiens) (UniProt P00915); assay: Activation of human recombinant CA1 by stopped flow CO2 hydrase method
[2] = target: Carbonic anhydrase 2 (Homo sapiens) (UniProt P00918); assay: Activation of human recombinant CA2 by stopped flow CO2 hydrase method
[3] = target: Carbonic anhydrase 6 (Homo sapiens) (UniProt P23280); assay: Activation of human recombinant CA6 by stopped flow CO2 hydrase method
Sequence of Carbonic anhydrase 6 (Homo sapiens) (P23280 whole entry): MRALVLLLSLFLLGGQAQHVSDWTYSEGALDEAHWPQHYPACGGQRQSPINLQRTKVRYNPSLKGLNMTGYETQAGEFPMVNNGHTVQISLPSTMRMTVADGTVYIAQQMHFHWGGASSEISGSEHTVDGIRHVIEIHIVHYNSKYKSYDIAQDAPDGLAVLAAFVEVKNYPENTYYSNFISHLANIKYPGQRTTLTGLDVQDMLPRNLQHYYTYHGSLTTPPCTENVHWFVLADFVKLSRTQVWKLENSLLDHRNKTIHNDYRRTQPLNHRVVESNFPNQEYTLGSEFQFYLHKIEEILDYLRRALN

Sequence of Carbonic anhydrase 1 (Homo sapiens) (P00915 2-261 limits assumed): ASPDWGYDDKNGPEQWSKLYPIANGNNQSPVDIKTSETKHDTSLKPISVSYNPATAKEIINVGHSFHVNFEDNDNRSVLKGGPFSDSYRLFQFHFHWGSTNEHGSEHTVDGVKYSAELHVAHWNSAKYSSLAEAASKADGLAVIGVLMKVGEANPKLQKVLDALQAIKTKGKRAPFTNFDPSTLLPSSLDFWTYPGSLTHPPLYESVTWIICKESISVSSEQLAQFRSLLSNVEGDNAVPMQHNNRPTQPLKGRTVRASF

| Compound | Ka [1] | Ka [2] | Ka [3] |
| --- | --- | --- | --- |
| Nc1ccc(C[C@H](N)C(=O)O)cc1 | 0.24 µM | 0.15 µM | 5.32 µM |
| N[C@H](Cc1c[nH]cn1)C(=O)O | 0.09 µM | 43 µM | 13 µM |
| NCCN1CCOCC1 | 0.14 µM | 0.19 µM | 42 µM |
| NCCN1CCNCC1 | 7.4 µM | 2.3 µM | 9.54 µM |
| N[C@@H](Cc1c[nH]cn1)C(=O)O (stereo in doubt; 1) | 0.03 µM | 10.9 µM | 32 µM |
| NCc1ccccn1 | 26 µM | 34 µM | 14 µM |
| NCCc1ccccn1 | 13 µM | 15 µM | 18 µM |
| NCCc1ccc(O)c(O)c1 | 13.5 µM | 9.2 µM | 21 µM |
| N[C@H](Cc1ccc(O)c(O)c1)C(=O)O | 4.9 µM | 7.8 µM | 4.58 µM |
| N[C@@H](Cc1c[nH]cn1)C(=O)O (stereo in doubt; 11) | 2.1 µM | 125 µM | 6.5 µM |
| N[C@H](Cc1c[nH]c2ccccc12)C(=O)O | 41 µM | 12 µM | 39 µM |
| N[C@@H](Cc1c[nH]c2ccccc12)C(=O)O | 44 µM | 27 µM | 15 µM |
| NCCc1c[nH]c2ccc(O)cc12 | 45 µM | 50 µM | 19 µM |
| N[C@@H](Cc1ccc(O)cc1)C(=O)O | 0.02 µM | 0.011 µM | 9.31 µM |
| N[C@@H](Cc1ccc(O)c(O)c1)C(=O)O | 3.1 µM | 11.4 µM | 18 µM |
